One experiment has as its target TYK2 (Homo sapiens (Human), UniProt P29597). The experiment can be described thus: Biochemical potency on Tyk2, TR-FRET LANCE Ultra kinase assay (compounds 1-92). Particulars: ATP at Km, read-out: Tyk2 inhibitory activity (pIC50 class) (converted). How it is done:
(§1) Biochemical Potency on JAK1, JAK2, JAK3 and Tyk2 Assay Principle The objective of this study was to assess the capability of compounds to inhibit all 4 JAK isoforms activity in a cell-free environment. Assay for JAK 1, JAK 2, JAK 3 and TYK2 were performed by Time-resolved fluorescence resonance energy transfer (TR-FRET) technology. It consists in the interaction of two labelled binding partners detected by the energy transfer from an excited donor to an acceptor dye and measurement of light emission by the acceptor dye. LANCE Ultra kinase assay was used. In presence of JAK 1, JAK 2, JAK 3 and TYK2 kinases and ATP (corresponding to Km), the ULight peptide substrate (LANCE Ulight-JAK-1 ([…]) Peptide, Perkin Elmer, TRF0121) is phosphorylated. It is then captured by Eu-anti-phospho-substrate antibody (LANCE Eu-W1024 Anti-phosphotyrosine (PT66), Perkin Elmer, AD0069), which bring the Eu-chelate donor and ULight acceptor dyes into close proximity. Upon excitation at 320 nm, the Eu-chelate transfers its energy to the ULight dye, resulting in a fluorescent light emission at 665 nm. Compound Testing Serial dilutions of compounds in pure DMSO are prepared from 10 mM DMSO stock solutions. Compounds were tested in 384-well plate for 11 consecutive 5-fold dilutions starting from 20 μM highest concentration (20 μM-[…]). 200 nL of compound were transferred from mother plate to test plate by using Mosquito (TTP labtech). Assay was performed in 384-well Perkin Elmer test plate in 20 μL assay volume (kinase reaction) and 40 μL total volume (stopping reagent and antibody detection reagents). In 10 μL of substrate solution (peptide+ATP) 30/50/20/10 nM of peptide and 20/0.7/0.2/12 μM of ATP were added for JAK 1, JAK 2, JAK 3 and TYK2 respectively. 10 μL of enzyme solution was added to kinase reaction at these concentrations: 0.15/0.083/0.025/0.144 ng/μL of JAK 1, JAK 2, JAK 3 and TYK2 respectively. After shaking and 1.5 h of incubation at r.t., 20 μL of Stop (10 μL EDTA) and Detection mixture (10 μL Europium-anti-phospho antibody, final: 0.5 nM) were added. Reading was performed after 1 h of incubation on a EnVision 2104 reader (Perkin Elmer). Calculation of IC50 data, curves and QC analysis was performed by using Excel tool and GraphPadPrism software, v9. Briefly, individual concentration-effect curves are generated by plotting the logarithm of the tested concentration of tested compounds (X) vs. corresponding percent inhibition values (Y) using least squares (ordinary) fit. Best fit IC50 values are calculated using Log(inhibitor) vs. normalized response-Variable slope equation, where Y=100/(1+10^((Log IC50-X)*HillSlope)). QC criteria parameters (Z', S:B, R2, HillSlope) were checked for every IC50 curve. Calculation of IC50 data, curves and QC analysis were made using Excel tools and GraphPadPrism software. QC criteria parameters: Z'≥0.5, Hill Slope range 0.5 to 5, S:B>2.

Another experiment addresses JAK 3 (Homo sapiens (Human), UniProt P52333). In words: Biochemical potency on JAK3, TR-FRET LANCE Ultra kinase assay (compounds 1-92). Particulars: ATP at Km, read-out: JAK3 inhibitory activity (pIC50 class) (converted). How it is done: as §1
(In TR-FRET formats the signal depends on donor and acceptor labels being close together.)

Another experiment concerns the target JAK 2 (Homo sapiens (Human), UniProt O60674). In words: Biochemical potency on JAK2, TR-FRET LANCE Ultra kinase assay (compounds 1-92). As to conditions: ATP at Km, read-out: JAK2 inhibitory activity (pIC50 class) (converted). How it is done:
as §1

The target of a further experiment is JAK 1 (Homo sapiens (Human), UniProt P23458). The experiment can be described thus: Biochemical potency on JAK1, TR-FRET LANCE Ultra kinase assay (compounds 1-92). As to conditions: ATP at Km, read-out: JAK1 inhibitory activity (pIC50 class) (converted). How it is done:
as §1

The values below come from patent US20240209001A1, “HETEROCYCLIC DERIVATIVES AS JANUS KINASE INHIBITORS” (CHIESI FARMACEUTICI S.P. A., priority 2021, published 2024).

Chain of JAK 3 (P52333 whole entry): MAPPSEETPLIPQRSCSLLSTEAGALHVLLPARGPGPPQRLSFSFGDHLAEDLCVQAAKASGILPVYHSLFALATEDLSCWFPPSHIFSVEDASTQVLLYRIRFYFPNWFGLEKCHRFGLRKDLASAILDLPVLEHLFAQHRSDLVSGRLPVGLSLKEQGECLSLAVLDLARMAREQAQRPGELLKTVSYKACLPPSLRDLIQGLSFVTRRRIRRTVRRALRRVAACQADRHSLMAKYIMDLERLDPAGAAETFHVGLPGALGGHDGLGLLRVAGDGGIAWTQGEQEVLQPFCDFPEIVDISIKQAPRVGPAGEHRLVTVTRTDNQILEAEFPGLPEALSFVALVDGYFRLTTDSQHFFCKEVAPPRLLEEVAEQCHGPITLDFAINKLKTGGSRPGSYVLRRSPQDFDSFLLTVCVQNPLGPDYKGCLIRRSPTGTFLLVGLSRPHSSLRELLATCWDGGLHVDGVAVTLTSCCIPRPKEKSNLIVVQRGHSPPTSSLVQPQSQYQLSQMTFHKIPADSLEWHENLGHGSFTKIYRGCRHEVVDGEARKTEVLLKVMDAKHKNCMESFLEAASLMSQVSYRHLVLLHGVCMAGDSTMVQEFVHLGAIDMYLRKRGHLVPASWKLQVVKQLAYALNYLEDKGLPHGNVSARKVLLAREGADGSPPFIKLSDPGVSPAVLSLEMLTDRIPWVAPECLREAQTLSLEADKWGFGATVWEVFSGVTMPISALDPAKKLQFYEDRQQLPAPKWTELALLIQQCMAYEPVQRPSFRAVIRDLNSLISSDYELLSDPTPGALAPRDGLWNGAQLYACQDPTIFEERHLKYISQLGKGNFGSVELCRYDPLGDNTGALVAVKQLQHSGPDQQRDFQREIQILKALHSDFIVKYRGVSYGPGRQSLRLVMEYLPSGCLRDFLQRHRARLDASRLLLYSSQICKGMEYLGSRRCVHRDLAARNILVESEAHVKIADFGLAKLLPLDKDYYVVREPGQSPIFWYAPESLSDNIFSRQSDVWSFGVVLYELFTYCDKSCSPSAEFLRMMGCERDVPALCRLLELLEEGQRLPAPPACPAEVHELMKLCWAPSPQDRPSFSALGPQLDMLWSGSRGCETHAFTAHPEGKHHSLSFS
Chain of JAK 2 (O60674 whole entry): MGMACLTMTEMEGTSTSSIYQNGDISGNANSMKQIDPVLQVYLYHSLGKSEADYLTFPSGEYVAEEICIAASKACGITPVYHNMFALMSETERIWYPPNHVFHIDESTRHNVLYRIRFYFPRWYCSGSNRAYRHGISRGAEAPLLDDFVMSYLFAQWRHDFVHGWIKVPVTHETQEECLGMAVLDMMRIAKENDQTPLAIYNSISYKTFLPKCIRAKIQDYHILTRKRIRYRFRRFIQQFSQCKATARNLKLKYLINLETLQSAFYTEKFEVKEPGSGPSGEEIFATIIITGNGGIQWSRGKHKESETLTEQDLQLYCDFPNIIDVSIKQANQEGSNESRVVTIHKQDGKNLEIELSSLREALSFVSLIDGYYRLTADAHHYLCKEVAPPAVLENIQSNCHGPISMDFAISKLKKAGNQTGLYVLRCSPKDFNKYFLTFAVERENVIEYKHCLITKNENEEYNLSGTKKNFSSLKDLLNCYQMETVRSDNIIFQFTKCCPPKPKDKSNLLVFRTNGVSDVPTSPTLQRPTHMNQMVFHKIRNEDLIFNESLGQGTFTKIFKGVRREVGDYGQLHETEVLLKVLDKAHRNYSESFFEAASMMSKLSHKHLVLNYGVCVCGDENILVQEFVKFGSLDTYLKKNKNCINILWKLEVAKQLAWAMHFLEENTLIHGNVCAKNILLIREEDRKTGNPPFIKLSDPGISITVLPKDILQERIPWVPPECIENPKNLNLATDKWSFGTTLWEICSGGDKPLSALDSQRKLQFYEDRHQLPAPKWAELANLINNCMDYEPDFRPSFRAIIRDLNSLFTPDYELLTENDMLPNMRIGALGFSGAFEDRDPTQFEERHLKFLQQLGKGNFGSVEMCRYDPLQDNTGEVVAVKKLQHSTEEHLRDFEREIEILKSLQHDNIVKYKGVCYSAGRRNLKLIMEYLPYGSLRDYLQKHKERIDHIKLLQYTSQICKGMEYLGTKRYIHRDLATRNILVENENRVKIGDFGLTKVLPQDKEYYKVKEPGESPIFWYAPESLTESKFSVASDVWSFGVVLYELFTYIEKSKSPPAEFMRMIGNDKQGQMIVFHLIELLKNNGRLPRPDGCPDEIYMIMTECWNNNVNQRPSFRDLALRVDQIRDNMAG
Chain of JAK 1 (P23458 whole entry): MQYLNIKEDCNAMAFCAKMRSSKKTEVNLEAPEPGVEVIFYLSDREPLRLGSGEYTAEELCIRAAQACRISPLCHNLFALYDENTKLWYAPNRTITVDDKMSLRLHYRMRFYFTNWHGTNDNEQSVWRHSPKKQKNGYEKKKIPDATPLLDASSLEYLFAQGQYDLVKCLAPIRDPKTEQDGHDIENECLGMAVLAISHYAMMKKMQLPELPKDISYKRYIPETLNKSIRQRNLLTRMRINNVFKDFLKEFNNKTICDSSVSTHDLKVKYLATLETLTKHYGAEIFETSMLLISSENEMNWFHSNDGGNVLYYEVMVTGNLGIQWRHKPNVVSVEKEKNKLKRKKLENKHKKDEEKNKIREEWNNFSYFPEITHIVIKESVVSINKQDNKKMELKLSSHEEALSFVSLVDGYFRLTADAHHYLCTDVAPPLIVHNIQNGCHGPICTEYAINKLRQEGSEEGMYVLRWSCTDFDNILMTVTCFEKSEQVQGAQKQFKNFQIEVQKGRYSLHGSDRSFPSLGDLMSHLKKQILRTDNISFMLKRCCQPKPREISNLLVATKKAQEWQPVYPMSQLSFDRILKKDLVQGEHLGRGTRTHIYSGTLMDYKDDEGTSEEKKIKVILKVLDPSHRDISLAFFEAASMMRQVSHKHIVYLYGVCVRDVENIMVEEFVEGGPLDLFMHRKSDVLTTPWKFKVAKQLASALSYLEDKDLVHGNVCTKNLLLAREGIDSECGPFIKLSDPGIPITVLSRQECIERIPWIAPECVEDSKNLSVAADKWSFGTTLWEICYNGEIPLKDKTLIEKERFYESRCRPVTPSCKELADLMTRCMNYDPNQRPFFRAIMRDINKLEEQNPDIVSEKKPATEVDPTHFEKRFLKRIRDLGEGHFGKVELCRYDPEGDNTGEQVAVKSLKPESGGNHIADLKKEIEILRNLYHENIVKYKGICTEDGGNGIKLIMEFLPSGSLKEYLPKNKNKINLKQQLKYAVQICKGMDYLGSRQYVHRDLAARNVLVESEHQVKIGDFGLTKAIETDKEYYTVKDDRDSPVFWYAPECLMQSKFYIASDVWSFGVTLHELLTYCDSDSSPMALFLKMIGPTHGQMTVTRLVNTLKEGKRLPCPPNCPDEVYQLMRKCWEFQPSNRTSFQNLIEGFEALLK
Chain of TYK2 (P29597 whole entry, canonical isoform): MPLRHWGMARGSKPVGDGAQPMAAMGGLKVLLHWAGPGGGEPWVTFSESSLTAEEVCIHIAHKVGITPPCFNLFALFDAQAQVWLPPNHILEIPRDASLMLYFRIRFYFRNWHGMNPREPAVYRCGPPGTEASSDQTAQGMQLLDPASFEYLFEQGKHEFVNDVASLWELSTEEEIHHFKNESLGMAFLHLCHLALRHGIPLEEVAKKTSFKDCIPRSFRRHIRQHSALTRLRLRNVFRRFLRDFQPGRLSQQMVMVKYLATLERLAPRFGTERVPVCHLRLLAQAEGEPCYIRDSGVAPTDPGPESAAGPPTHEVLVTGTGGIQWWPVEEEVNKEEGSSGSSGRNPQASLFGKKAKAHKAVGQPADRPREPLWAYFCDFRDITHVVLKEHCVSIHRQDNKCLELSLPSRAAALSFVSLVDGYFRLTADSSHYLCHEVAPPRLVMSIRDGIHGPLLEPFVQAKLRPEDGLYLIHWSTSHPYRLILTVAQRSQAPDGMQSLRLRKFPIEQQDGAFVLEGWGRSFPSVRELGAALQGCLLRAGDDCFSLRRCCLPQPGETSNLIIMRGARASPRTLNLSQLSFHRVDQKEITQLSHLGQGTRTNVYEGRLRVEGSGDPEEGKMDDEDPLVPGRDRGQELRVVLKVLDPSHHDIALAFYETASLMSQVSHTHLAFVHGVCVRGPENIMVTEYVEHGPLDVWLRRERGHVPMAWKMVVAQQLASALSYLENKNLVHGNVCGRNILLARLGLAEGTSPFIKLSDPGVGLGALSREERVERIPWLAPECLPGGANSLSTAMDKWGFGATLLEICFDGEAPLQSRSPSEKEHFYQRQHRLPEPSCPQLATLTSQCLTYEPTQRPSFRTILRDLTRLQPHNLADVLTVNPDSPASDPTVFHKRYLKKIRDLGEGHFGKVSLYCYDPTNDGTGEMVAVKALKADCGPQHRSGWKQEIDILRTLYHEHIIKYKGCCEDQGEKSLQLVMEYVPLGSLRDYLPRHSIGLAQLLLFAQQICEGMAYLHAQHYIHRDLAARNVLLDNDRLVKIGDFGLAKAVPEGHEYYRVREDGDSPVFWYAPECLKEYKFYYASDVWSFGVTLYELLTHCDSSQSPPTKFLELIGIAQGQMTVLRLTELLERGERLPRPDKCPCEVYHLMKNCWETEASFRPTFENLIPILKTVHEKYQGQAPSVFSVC

Turning to `COc1cc(NS(=O)(=O)C2CC2)ccc1-n1nc(NCCN(C)C)c2cnc(-c3cnn4cccnc34)cc21` [Example 32, N-(4-(3-((2-(dimethylamino)ethyl)amino)-6-(pyrazolo[1,5-a]pyrimidin-3-yl)-1H-pyrazolo[4,3-c]pyridin-1-yl)-3-methoxyphenyl)cyclopropanesulfonamide], the IC50 was 5.01 to 50.1 nM at TYK2, 5.01 to 50.1 nM on JAK 3, at most 5.01 nM on JAK 2 and 5.01 to 50.1 nM on JAK 1.

In the case of `COc1cc(NS(=O)(=O)C2CC2)ccc1-n1nc(NCCCN2CCOCC2)c2cnc(-c3cnn4cccnc34)cc21` [Example 33, N-(3-methoxy-4-(3-((3-morpholinopropyl)amino)-6-(pyrazolo[1,5-a]pyrimidin-3-yl)-1H-pyrazolo[4,3-c]pyridin-1-yl)phenyl)cyclopropanesulfonamide], the IC50 on TYK2, at JAK 3, on JAK 2 and on JAK 1 was 5.01 to 50.1 nM in each case.

Consider `COc1cc(NS(=O)(=O)C2CC2)ccc1-n1nc(NCCN2CCOCC2)c2cnc(-c3cnn4cccnc34)cc21` [Example 34, N-(3-methoxy-4-(3-((2-morpholinoethyl)amino)-6-(pyrazolo[1,5-a]pyrimidin-3-yl)-1H-pyrazolo[4,3-c]pyridin-1-yl)phenyl)cyclopropanesulfonamide], for which the IC50 at TYK2 was 5.01 to 50.1 nM; at JAK 3, 5.01 to 50.1 nM; at JAK 2 it was 5.01 to 50.1 nM; on JAK 1, at most 5.01 nM.

For the compound `CNc1nn(-c2ccc(NS(=O)(=O)C3CC3)cc2OC)c2cc(-c3cnn4cccnc34)ncc12` [Example 35, N-(3-methoxy-4-(3-(methylamino)-6-(pyrazolo[1,5-a]pyrimidin-3-yl)-1H-pyrazolo[4,3-c]pyridin-1-yl)phenyl)cyclopropanesulfonamide], the IC50 at TYK2 was 5.01 to 50.1 nM; at JAK 3, 5.01 to 50.1 nM; on JAK 2 it was at most 5.01 nM; at JAK 1, at most 5.01 nM.

Regarding `COc1cc(NS(=O)(=O)C2CC2)ccc1-n1nc(NCCN2CCCCC2)c2cnc(-c3cnn4cccnc34)cc21` [Example 36, N-(3-methoxy-4-(3-((2-(piperidin-1-yl)ethyl)amino)-6-(pyrazolo[1,5-a]pyrimidin-3-yl)-1H-pyrazolo[4,3-c]pyridin-1-yl)phenyl)cyclopropanesulfonamide], the IC50 on TYK2, at JAK 3, on JAK 2 and at JAK 1 was 5.01 to 50.1 nM each time.

For the compound `COc1cc(NS(C)(=O)=O)ccc1-n1nc(NCCN2CCCCC2)c2cnc(-c3cnn4cccnc34)cc21` [Example 37, N-(3-methoxy-4-(3-((2-(piperidin-1-yl)ethyl)amino)-6-(pyrazolo[1,5-a]pyrimidin-3-yl)-1H-pyrazolo[4,3-c]pyridin-1-yl)phenyl)methanesulfonamide], the IC50 on TYK2 was 5.01 to 50.1 nM; at JAK 3 it was at most 5.01 nM; on JAK 2 it was at most 5.01 nM; at JAK 1, at most 5.01 nM.

For `COc1cc(NS(C)(=O)=O)ccc1-n1nc(NCCN2CCN(C)CC2)c2cnc(-c3cnn4cccnc34)cc21` [Example 38, N-(3-methoxy-4-(3-((2-(4-methylpiperazin-1-yl)ethyl)amino)-6-(pyrazolo[1,5-a]pyrimidin-3-yl)-1H-pyrazolo[4,3-c]pyridin-1-yl)phenyl)methanesulfonamide], the IC50 at TYK2 is 5.01 to 50.1 nM; at JAK 3, at most 5.01 nM; at JAK 2, at most 5.01 nM; on JAK 1, at most 5.01 nM.

`COc1cc(NS(C)(=O)=O)ccc1-n1nc(NCCN(C)CCF)c2cnc(-c3cnn4cccnc34)cc21` [Example 39, N-(4-(3-((2-((2-fluoroethyl)(methyl)amino)ethyl)amino)-6-(pyrazolo[1,5-a]pyrimidin-3-yl)-1H-pyrazolo[4,3-c]pyridin-1-yl)-3-methoxyphenyl)methanesulfonamide]: the IC50 was 5.01 to 50.1 nM at TYK2, at most 5.01 nM on JAK 3, at most 5.01 nM on JAK 2 and at most 5.01 nM on JAK 1.

In the case of `COc1cc(NS(C)(=O)=O)ccc1-n1nc(N(C)CCN2CCOCC2)c2cnc(-c3cnn4cccnc34)cc21` [Example 40, N-(3-methoxy-4-(3-(methyl(2-morpholinoethyl)amino)-6-(pyrazolo[1,5-a]pyrimidin-3-yl)-1H-pyrazolo[4,3-c]pyridin-1-yl)phenyl)methanesulfonamide], the IC50 at TYK2, at JAK 3, at JAK 2 and on JAK 1 was 5.01 to 50.1 nM throughout.

As for `COc1cc(NS(C)(=O)=O)ccc1-n1nc(NC(=O)C2CCN(C)CC2)c2cnc(-c3cnn4cccnc34)cc21` [Example 41, N-(1-(2-methoxy-4-(methylsulfonamido)phenyl)-6-(pyrazolo[1,5-a]pyrimidin-3-yl)-1H-pyrazolo[4,3-c]pyridin-3-yl)-1-methylpiperidine-4-carboxamide], the IC50 was 5.01 to 50.1 nM on TYK2, at most 5.01 nM on JAK 3, at most 5.01 nM at JAK 2 and at most 5.01 nM on JAK 1.

Regarding `COc1cc(NS(C)(=O)=O)ccc1-n1nc(C(=O)NCCCN(C)C)c2cnc(-c3cnn4cccnc34)cc21` [Example 43, N-(3-(dimethylamino)propyl)-1-(2-methoxy-4-(methylsulfonamido)phenyl)-6-(pyrazolo[1,5-a]pyrimidin-3-yl)-1H-pyrazolo[4,3-c]pyridine-3-carboxamide], the IC50 on TYK2 was 5.01 to 50.1 nM; on JAK 3, 5.01 to 50.1 nM; on JAK 2, at most 5.01 nM; at JAK 1, at most 5.01 nM.

Take `COc1cc(NS(C)(=O)=O)ccc1-n1nc(C(=O)NCCN(C)C)c2cnc(-c3cnn4cccnc34)cc21` [Example 44, N-(2-(dimethylamino)ethyl)-1-(2-methoxy-4-(methylsulfonamido)phenyl)-6-(pyrazolo[1,5-a]pyrimidin-3-yl)-1H-pyrazolo[4,3-c]pyridine-3-carboxamide]: the IC50 on TYK2 is 5.01 to 50.1 nM; at JAK 3, at most 5.01 nM; at JAK 2, at most 5.01 nM; at JAK 1, at most 5.01 nM.

On to `COc1cc(NS(C)(=O)=O)ccc1-n1nc(C(=O)NCCN2CCOCC2)c2cnc(-c3cnn4cccnc34)cc21` [Example 45, 1-(2-methoxy-4-(methylsulfonamido)phenyl)-N-(2-morpholinoethyl)-6-(pyrazolo[1,5-a]pyrimidin-3-yl)-1H-pyrazolo[4,3-c]pyridine-3-carboxamide], for which the IC50 was 5.01 to 50.1 nM at TYK2, at most 5.01 nM at JAK 3, at most 5.01 nM on JAK 2 and at most 5.01 nM on JAK 1.

Consider `CCCS(=O)(=O)Nc1ccc(-n2nc(C(=O)NCCCN(C)C)c3cnc(-c4cnn5cccnc45)cc32)c(OC)c1` [Example 46, N-(3-(dimethylamino)propyl)-1-(2-methoxy-4-(propylsulfonamido)phenyl)-6-(pyrazolo[1,5-a]pyrimidin-3-yl)-1H-pyrazolo[4,3-c]pyridine-3-carboxamide], for which the IC50 on TYK2 was over 50.1 nM; on JAK 3, 5.01 to 50.1 nM; on JAK 2, 5.01 to 50.1 nM; on JAK 1, 5.01 to 50.1 nM.

Regarding `CCCS(=O)(=O)Nc1ccc(-n2nc(C(=O)NCCCN3CCOCC3)c3cnc(-c4cnn5cccnc45)cc32)c(OC)c1` [Example 47, 1-(2-methoxy-4-(propylsulfonamido)phenyl)-N-(3-morpholinopropyl)-6-(pyrazolo[1,5-a]pyrimidin-3-yl)-1H-pyrazolo[4,3-c]pyridine-3-carboxamide], the IC50 was over 50.1 nM on TYK2, 5.01 to 50.1 nM on JAK 3, 5.01 to 50.1 nM at JAK 2 and 5.01 to 50.1 nM on JAK 1.
